Measured values as given in patent publication US9212163B2, “Pesticidal compositions and processes related thereto” (Dow AgroSciences LLC, priority 2012, dated 2015).

Columns and labels:
[1] = system: Beet Armyworm (BAW) (Spodoptera exigua); assay: Bioassay on Beet Armyworm (BAW), 128-well diet tray assay; format: in vivo; settings: Spodoptera exigua; Table 5: Prophetic Compounds Subsequently Exemplified; read-out: BAW Rating
How it was run: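 Artificial diet treated with 50 μg/cm^2 compound in 90:10 acetone-water was dried, then one to five second-instar larvae were placed per well, eight wells per compound. Trays were held at 25° C., 14:10 light-dark for five to seven days, and percent mortality averaged across wells.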

[2] = system: Cabbage Looper (CL) (Trichoplusia ni); assay: Bioassay on Cabbage Looper (CL), 128-well diet tray assay; format: in vivo; settings: Table 5: Prophetic Compounds Subsequently Exemplified, read-out: CL Rating
Experimental: Certain molecules disclosed in this document were tested against BAW, CEW and CL using procedures described in the following examples. In the reporting of the results, the “BAW & CEW & CL Rating Table” was used (See Table Section).
Bioassays on CL (Trichoplusia ni)
Bioassays on CL were conducted using a 128-well diet tray assay. One to five second instar CL larvae were placed in each well (3 mL) of the diet tray that had been previously filled with 1 mL of artificial diet to which 50 μg/cm^2 of the test compound (dissolved in 50 μL of 90:10 acetone-water mixture) had been applied (to each of eight wells) and then allowed to dry. Trays were covered with a clear self-adhesive cover, and held at 25° C., 14:10 light-dark for five to seven days. Percent mortality was recorded for the larvae in each well; activity in the eight wells was then averaged. The results are indicated in the table entitled “Table 4: Assay Results Part 2” (See Table Section).

Structure (SMILES)	pest or weed control at 50 µg/cm2 [1]	pest or weed control at 50 µg/cm2 [2]
O=C(NC1(C(=O)NCC(F)(F)F)CC1)c1ccc(/C=C/C(c2cccc(OC(F)(F)F)c2)C(F)(F)F)cc1C(F)(F)F (stereo not shown) [Compound P155]	50 to 100%	50 to 100%
O=C(NC1(C(=O)NCC(F)(F)F)CC1)c1ccc(/C=C/C(c2cc(F)cc(Br)c2)C(F)(F)F)cc1Br (stereo not shown) [Compound P198]	50 to 100%	50 to 100%
O=C(NC1(C(=O)NCC(F)(F)F)CC1)c1ccc(/C=C/C(c2cc(F)cc(Br)c2)C(F)(F)F)cc1C(F)(F)F (stereo not shown) [Compound P200]	50 to 100%	50 to 100%
Cc1cc(C(/C=C/c2ccc(C(=O)NC3(C(=O)NCC(F)(F)F)CC3)c(Br)c2)C(F)(F)F)ccc1Cl (stereo not shown) [Compound P243]	50 to 100%	50 to 100%
Cc1cc(C(/C=C/c2ccc(C(=O)NC3(C(=O)NCC(F)(F)F)CC3)c(C(F)(F)F)c2)C(F)(F)F)ccc1Cl (stereo not shown) [Compound P245]	50 to 100%	50 to 100%
Cc1cc(C(/C=C/c2ccc(C(=O)NC3(C(=O)NCC(F)(F)F)CC3)c(Br)c2)C(F)(F)F)cc(C)c1F (stereo not shown) [Compound P333]	50 to 100%	50 to 100%
Cc1cc(C(/C=C/c2ccc(C(=O)NC3(C(=O)NCC(F)(F)F)CC3)c(C(F)(F)F)c2)C(F)(F)F)cc(C)c1F (stereo not shown) [Compound P335]	50 to 100%	50 to 100%
Cc1cc(C(/C=C/c2ccc(C(=O)NC3(C(=O)NCC(F)(F)F)CC3)c(C(F)(F)F)c2)C(F)(F)F)ccc1F (stereo not shown) [Compound P336]	50 to 100%	50 to 100%
O=C(NC1(C(=O)NCC(F)(F)F)CC1)c1ccc(/C=C/C(c2cc(Cl)cc(Br)c2)C(F)(F)F)cc1Br (stereo not shown) [Compound P378]	50 to 100%	50 to 100%
O=C(NC1(C(=O)NCC(F)(F)F)CC1)c1ccc(/C=C/C(c2cc(Cl)cc(Br)c2)C(F)(F)F)cc1C(F)(F)F (stereo not shown) [Compound P380]	50 to 100%	50 to 100%
O=C(NC1(C(=O)NCC(F)(F)F)CC1)c1ccc(/C=C/C(c2ccc(Br)c(Br)c2)C(F)(F)F)cc1Br (stereo not shown) [Compound P423]	50 to 100%	50 to 100%
O=C(NC1(C(=O)NCC(F)(F)F)CC1)c1ccc(/C=C/C(c2ccc(Br)c(Br)c2)C(F)(F)F)cc1C(F)(F)F (stereo not shown) [Compound P425]	50 to 100%	50 to 100%
O=C(NC1(C(=O)NCC(F)(F)F)CC1)c1ccc(/C=C/C(c2ccc(Cl)c([N+](=O)[O-])c2)C(F)(F)F)cc1Br (stereo not shown) [Compound P468]	50 to 100%	50 to 100%
N#Cc1cc(C(/C=C/c2ccc(C(=O)NC3(C(=O)NCC(F)(F)F)CC3)c(Br)c2)C(F)(F)F)ccc1F (stereo not shown) [Compound P513]	50 to 100%	50 to 100%
N#Cc1cc(C(/C=C/c2ccc(C(=O)NC3(C(=O)NCC(F)(F)F)CC3)c(C(F)(F)F)c2)C(F)(F)F)ccc1F (stereo not shown) [Compound P515]	50 to 100%	50 to 100%
Cc1cc(C(/C=C/c2ccc(C(=O)NC3(C(=O)NCC(F)(F)F)CC3)c(Br)c2)C(F)(F)F)ccc1F (stereo not shown) [Compound P693]	50 to 100%	50 to 100%
O=C(NC1(C(=O)NCC(F)(F)F)CC1)c1ccc(/C=C/C(c2cc(Cl)c(Cl)c(Cl)c2)C(F)(F)C(F)(F)F)cc1Br (stereo not shown) [Compound P1003]	50 to 100%	50 to 100%
O=C(NC1(C(=O)NCC(F)(F)F)CC1)c1ccc(/C=C/C(c2cc(Cl)c(Cl)c(Cl)c2)C(F)(F)C(F)(F)F)cc1C(F)(F)F (stereo not shown) [Compound P1005]	50 to 100%	50 to 100%
O=C(NC1(C(=S)NCC(F)(F)F)CC1)c1ccc(/C=C/C(c2cc(Cl)c(Cl)c(Cl)c2)C(F)(F)F)cc1Br (stereo not shown) [Compound P1009]	50 to 100%	50 to 100%

Structure (SMILES)	pest or weed control at 50 µg/cm2 [1]	pest or weed control at 50 µg/cm2 [2]
O=C(NC1(C(=S)NCC(F)(F)F)CC1)c1ccc(/C=C/C(c2cc(Cl)c(Cl)c(Cl)c2)C(F)(F)F)cc1Cl (stereo not shown) [Compound P1010]	50 to 100%	50 to 100%
Cc1cc(/C=C/C(c2cc(Cl)c(Cl)c(Cl)c2)C(F)(F)F)ccc1C(=O)NC1(C(=S)NCC(F)(F)F)CC1 (stereo not shown) [Compound P1011]	50 to 100%	50 to 100%
O=C(NC1(C(=O)NCC(F)F)CC1)c1ccc(/C=C/C(c2cc(Cl)c(Cl)c(Cl)c2)C(F)(F)F)cc1C(F)(F)F (stereo not shown) [Compound P1015]	50 to 100%	50 to 100%
O=C(NC1(C(=O)NCCF)CC1)c1ccc(/C=C/C(c2cc(Cl)c(Cl)c(Cl)c2)C(F)(F)F)cc1C(F)(F)F (stereo not shown) [Compound P1020]	50 to 100%	50 to 100%
CCNC(=O)C1(NC(=O)c2ccc(/C=C/C(c3cc(Cl)c(Cl)c(Cl)c3)C(F)(F)F)cc2Br)CC1 (stereo not shown) [Compound P1023]	50 to 100%	50 to 100%
O=C(NC1(C(=O)NCCC(F)(F)F)CC1)c1ccc(/C=C/C(c2cc(Cl)c(Cl)c(Cl)c2)C(F)(F)F)cc1Br (stereo not shown) [Compound P1033]	50 to 100%	50 to 100%
O=C(NC1(C(=O)NCCC(F)(F)F)CC1)c1ccc(/C=C/C(c2cc(Cl)c(Cl)c(Cl)c2)C(F)(F)F)cc1C(F)(F)F (stereo not shown) [Compound P1035]	50 to 100%	50 to 100%
O=C(NC1(C(=O)NCC(F)(F)F)CC1)c1ccc(/C=C/C(c2cc(Cl)cc(Cl)c2)C(F)(F)C(F)(F)F)cc1Br (stereo not shown) [Compound P1043]	50 to 100%	50 to 100%
O=C(NC1(C(=O)NCC(F)(F)F)CC1)c1ccc(/C=C/C(c2cc(Cl)cc(Cl)c2)C(F)(F)C(F)(F)F)cc1C(F)(F)F (stereo not shown) [Compound P1045]	50 to 100%	50 to 100%
O=C(NC1(C(=O)NCC(F)(F)F)CC1)c1ccc(/C=C/C(c2cc(Cl)cc(Cl)c2)C(F)(F)F)cc1Br (stereo not shown) [Compound P1048]	50 to 100%	50 to 100%
O=C(NC1(C(=O)NCC(F)(F)F)CC1)c1ccc(/C=C/C(c2cc(Cl)cc(Cl)c2)C(F)(F)F)cc1C(F)(F)F (stereo not shown) [Compound P1050]	50 to 100%	50 to 100%
O=C(NC1(C(=O)NCC(F)(F)F)CC1)c1ccc(/C=C/C(c2ccc(Cl)c(Cl)c2)C(F)(F)F)cc1Br (stereo not shown) [Compound P1093]	50 to 100%	50 to 100%
O=C(NC1(C(=O)NCC(F)(F)F)CC1)c1ccc(/C=C/C(c2ccc(Cl)c(Cl)c2)C(F)(F)F)cc1C(F)(F)F (stereo not shown) [Compound P1095]	50 to 100%	50 to 100%
O=C(NC1(C(=O)NCC(F)(F)F)CC1)c1ccc(/C=C/C(c2cc(Br)cc(Br)c2)C(F)(F)F)cc1Br (stereo not shown) [Compound P1183]	50 to 100%	50 to 100%
O=C(NC1(C(=O)NCC(F)F)CC1)c1ccc(/C=C/C(c2cc(Br)cc(Br)c2)C(F)(F)F)cc1Br (stereo not shown) [Compound P1193]	50 to 100%	50 to 100%
O=C(NC1(C(=O)NCC(F)F)CC1)c1ccc(/C=C/C(c2cc(Br)cc(Br)c2)C(F)(F)F)cc1C(F)(F)F (stereo not shown) [Compound P1195]	50 to 100%	50 to 100%
O=C(NC1(C(=O)NCC(F)(F)F)CC1)c1ccc(/C=C/C(c2cc(Br)cc(Br)c2)C(F)(F)F)cc1C(F)(F)F (stereo not shown) [Compound P1198]	50 to 100%	50 to 100%
O=C(NC1(C(=O)NCCF)CC1)c1ccc(/C=C/C(c2cc(Br)cc(Br)c2)C(F)(F)F)cc1C(F)(F)F (stereo not shown) [Compound P1200]	50 to 100%	50 to 100%
O=C(NC1(C(=O)NCCC(F)(F)F)CC1)c1ccc(/C=C/C(c2cc(Br)cc(Br)c2)C(F)(F)F)cc1Br (stereo not shown) [Compound P1213]	50 to 100%	50 to 100%
